# Laboratory results reported in PubChem BioAssay (NCI).
# Several values for one entry are separate records, joined by “and”; a condition that tells them apart may be missing. Identical values can stand only once.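 Cultured in 96-well plates, cells were exposed to test compound for 48 hours across five concentrations. GI50 = concentration required for 50% inhibition of growth. At the TGI there is no net growth.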
# Tests used:
# Test in all cases: inhibition of tumour cell growth, NCI panel, 48 h
# [1] = test system: HOP-92 NSCLC
# [2] = test system: IGROV1 ovarian
# [3] = test system: K-562 leukemia
# [4] = test system: NCI-H460 lung
# [5] = test system: OVCAR-4 ovarian
# [6] = test system: SF-295 CNS
# [7] = test system: SF-539 CNS
# [8] = test system: SNB-19 CNS
# [9] = test system: HOP-62 NSCLC
# [10] = test system: UACC-257 melanoma
SMILES,TGI [1],TGI [2],TGI [3],TGI [4],TGI [5],TGI [6],TGI [7],TGI [8],GI50 [9],TGI [9],GI50 [2],GI50 [3],GI50 [4],GI50 [5],GI50 [6],GI50 [7],GI50 [8],GI50 [10],TGI [10]
C[C@]12CC[C@H](OC(=O)Nc3ccccc3)CC1=CC[C@@H]1C2CC[C@]2(C)/C(=N/OC(=O)Nc3ccccc3)CCC12 (stereo partly drawn),72.1 µM,> 100 µM,> 100 µM,> 100 µM,> 100 µM,> 100 µM,> 100 µM,> 100 µM,,,,,,,,,,,
CSCc1ncc(-c2ccc(C(F)(F)F)cc2)c(NC2CCCCCC2)n1,,> 10 µM,> 10 µM,> 10 µM,> 10 µM,> 10 µM,> 10 µM,> 10 µM,> 10 µM,> 10 µM,> 10 µM,> 10 µM,> 10 µM,> 10 µM,> 10 µM,> 10 µM,> 10 µM,> 10 µM,> 10 µM
COc1ccccc1/C=C(\NC(=O)c1ccccc1)c1nc2ccccc2[nH]1,72.5 µM,> 100 µM,> 100 µM,> 100 µM,> 100 µM,,> 100 µM,> 100 µM,,,,,,,,,,,> 100 µM
Fc1ccc(-c2ncn(C3CCNCC3)c2-c2ccnc(Oc3ccc(Cl)cc3)n2)cc1,,13.3 µM,11.2 µM,7.49 µM,9.69 µM,9.26 µM,8.39 µM,> 18.7 µM,3.7 µM,7.46 µM,4.62 µM,4.7 µM,3.79 µM,4.15 µM,4.39 µM,4.2 µM,6.57 µM,,
CCCCn1c(-c2ccccc2)cs/c1=N\NC(=O)Cn1c(C)nc2ccccc21,,> 100 µM,> 100 µM,> 100 µM,> 100 µM,> 100 µM,> 100 µM,> 100 µM,,> 100 µM,,,,,,,,,> 100 µM
NCCOCCOCC(=O)O,> 100 µM,> 100 µM,> 100 µM,,> 100 µM,> 100 µM,> 100 µM,> 100 µM,,,,,,,,,,,> 100 µM
COc1ccc(OCC(=O)O)c2c1CCC(C)C2=O (stereo not drawn),,> 100 µM,> 100 µM,> 100 µM,> 100 µM,> 100 µM,> 100 µM,> 100 µM,,> 100 µM,,,,,,,,,> 100 µM
Cc1c2cc[n+](C)cc2c(C)c2c1[nH]c1ccc(OCC(F)(F)F)cc12,8.98 µM and > 28.5 µM,> 100 µM,> 56.6 µM,,> 100 µM,2.22 µM,,3.02 µM,,,,,,,,1.73 µM,,4.02 µM and 14.8 µM,20 µM and > 100 µM
OC[C@H]1N[C@H](CO)[C@@H](O)[C@H]1O,,> 100 µM,> 100 µM,,,> 100 µM,> 100 µM,> 100 µM,,> 100 µM,,,,,,,,,> 100 µM
COc1c(OC2OC(C)C(O)C(O)C2O)c(OC)c2oc(-c3ccc(O)cc3)cc(=O)c2c1O (stereo not drawn),,92.2 µM,> 100 µM,81.4 µM,> 100 µM,> 100 µM,90.5 µM,> 100 µM,35.1 µM,> 100 µM,18.1 µM,26.2 µM,27.7 µM,29.7 µM,36.4 µM,34.3 µM,45.2 µM,3.97 µM,28.1 µM
C=C(CN1CCc2ccccc2C1)c1ccc(CCCC(=O)Nc2ccccc2N)cc1,,,25.3 µM,> 100 µM,49.8 µM,39.9 µM,24 µM,> 100 µM,22.7 µM,75.2 µM,,0.505 µM,> 100 µM,14.5 µM,14.6 µM,11.4 µM,23.2 µM,17.4 µM,42 µM
CCOC(=N)CC(=O)Nc1ccccc1CC,,> 100 µM,> 100 µM,> 100 µM,> 100 µM,> 100 µM,> 100 µM,> 100 µM,,> 100 µM,,,,,,,,,> 100 µM
COc1ccc(C2=NNC(c3sc(Cl)nc3Cl)C2)cc1 (stereo not drawn),,22.2 µM,36.8 µM,75.1 µM,25.4 µM,77.9 µM,32 µM,68.6 µM,28.4 µM,> 100 µM,5.21 µM,3.63 µM,24.3 µM,11.5 µM,25.1 µM,4.58 µM,20.8 µM,16 µM,36.2 µM
COc1cc(N)c(Cl)cc1C(=O)N[C@@H]1CCN(CCCOc2ccc(F)cc2)C[C@@H]1OC,,> 100 µM,74.1 µM,> 100 µM,> 100 µM,> 100 µM,> 100 µM,> 100 µM,,,> 100 µM,26.3 µM,66.9 µM,> 100 µM,50.3 µM,66.2 µM,> 100 µM,,
C[C@@H]1CC2(C[C@@H](C)C3[C@@H](CC4(C)CCCC5C6=CC(O)(CC[C@]34C)OC6=CC(=O)OC5(C)C)O2)OC1=O (stereo partly drawn),> 100 µM,> 100 µM,> 100 µM,,> 100 µM,,> 100 µM,> 100 µM,,,,,,,,,,,
